From the Deep4Chem optical property database

Assay: solvent given as SMILES

For `c1ccc2c(-c3cc4c(ccc5sc(-c6cccc7ccccc67)cc54)s3)cccc2c1`, the absorption maximum (in ClCCl) was 333 nm.
Molecule `CC1=N/C(=C\c2ccncc2)C(=O)N1C` has an absorption maximum (in C1COCCO1) of 357 nm, an absorption maximum (in CC#N) of 356 nm and an absorption maximum (in CCO) of 351 nm. For the same molecule, the absorption maximum (in CCOC(C)=O) was 353 nm and the absorption maximum (in O) was 347 nm.
For `CCN(CC)c1ccc2c(-c3ccccc3C(=O)[O-])c3ccc(=[N+](CC)CC)cc-3oc2c1`, the absorption maximum (in CC#N) was 555 nm, the absorption maximum (in CCO) was 539 nm and the absorption maximum (in CN(C)C=O) was 560 nm. It also gave an absorption maximum (in O) of 554 nm.
`CCOC(=O)c1c(-c2c(Cl)c3cc(C)ccc3oc2=O)nn(-c2cccc(Cl)c2)c1C(=O)OCC` showed an absorption maximum (in ClCCl) of 331 nm.
`CC[n+]1c(C=C2C(=O)C(C=C3N(C)c4ccc(Cl)cc4C3(C)C)=C2[O-])[se]c2ccccc21` gave an absorption maximum (in CO) of 644 nm, an absorption maximum (in ClC(Cl)Cl) of 655 nm and an absorption maximum (in ClCCl) of 659 nm.
For `CCCCCCN1C(=O)c2cccc3c(-c4ccc(-c5ccc6c7c(cccc57)C(=O)N(CCCCCC)C6=O)s4)ccc(c23)C1=O`, the absorption maximum (in ClC(Cl)Cl) was 395 nm.
For `c1ccc(-c2nc(-c3ccc(-c4ccc(-c5nc(-c6ccccc6)c(-c6ccccc6)o5)cc4)cc3)oc2-c2ccccc2)cc1`, the absorption maximum (in C1COCCO1) was 353 nm.
Molecule `CCOC(=O)c1c2c3c(ccc(Br)c3c3cc4ccccc4cc13)N(C)C2=O` has an absorption maximum (in CC#N) of 404 nm.
With `COc1cc2c(cc1OC)C1=C[C@H](c3ccccc3)C3(C(C#N)=C(C#N)N1CC2)c1ccccc1-c1ccccc13` the absorption maximum (in ClCCl) was 310 nm.
Work on `CCCCN(CCCC)c1ccc(C#Cc2cc(C#Cc3ccc(N(CCCC)CCCC)cc3)c(C#Cc3c(F)c(F)c(F)c(F)c3F)cc2C#Cc2c(F)c(F)c(F)c(F)c2F)cc1` yielded an absorption maximum (in ClCCl) of 438 nm.
With `CCOc1ccc2c(-c3nc(-c4ccccc4)no3)cc(=O)oc2c1` the absorption maximum (in CCO) was 388 nm and the absorption maximum (in ClC(Cl)Cl) was 392 nm.
Molecule `O=[N+]([O-])c1ccc(-c2nc(/C=C/c3ccc(Cl)cc3)c(/C=C/c3ccc(Cl)cc3)[nH]2)cc1` has an absorption maximum (in ClCCl) of 425 nm.
For `CCCCn1c2ccccc2c2ccc(C#Cc3ccc4ccc5cccc6ccc3c4c56)cc21`, the absorption maximum (in ClCCl) was 404 nm.
`CC(C)(C)c1ccc2c(c1)c1cc(C(C)(C)C)ccc1n2-c1ccc(C#Cc2ccc3c4ccc(C#Cc5ccc(C=O)cc5)cc4n(-c4ccc(C(F)(F)F)cc4)c3c2)cc1` gave an absorption maximum (in ClCCl) of 377 nm.
Work on `CC(C)[Si](C#Cc1c2ccccc2c(C#C[Si](C(C)C)(C(C)C)C(C)C)c2nc3cc4c(cc3nc12)C1c2ccccc2C4c2ccccc21)(C(C)C)C(C)C` yielded an absorption maximum (in CCCCCC) of 558 nm and an absorption maximum (in ClCCl) of 562 nm.
For `CN(C)c1ccc2c(c1)C(=O)c1ccccc1-2`, the absorption maximum (in C1CCCCC1) was 484 nm, the absorption maximum (in CC#N) was 510 nm and the absorption maximum (in CCO) was 509 nm. It also gave an absorption maximum (in c1ccccc1) of 507 nm.
`COc1cc2oc(=O)c3c4ccc(N(C)C)cc4c4ccc5cccc6c(c1)c2c3c4c56` gave an absorption maximum (in C1CCOC1) of 480 nm.
Molecule `CCC1=C(C)C2=Cc3c4ccccc4c4n3[B-](c3cc[n+](C)cc3)(Oc3ccccc3-4)[N+]2=C1C` (stereo unspecified) has an absorption maximum (in CO) of 621 nm and an absorption maximum (in CS(C)=O) of 626 nm.
`C1=C(c2ccccc2)C(c2ccccc2)=CC1c1ccccc1` showed an absorption maximum (in C1CCOC1) of 290 nm.
Molecule `CCN(C)c1ccc(C2=C3C(C)=CC(/C=C/c4ccc(OCCCN=[N+]=[N-])cc4)=[N+]3[B-](F)(F)n3c(C)cc(C)c32)cc1` has an absorption maximum (in CO) of 568 nm.
In the case of `COc1c2ccccc2c(OC)c2c1c1ccccc1n2C`, the absorption maximum (in C1CCCCC1) is reported as 405 nm, the absorption maximum (in CC#N) is reported as 406 nm and the absorption maximum (in CO) is reported as 405 nm. For the same molecule, the absorption maximum (in ClCCl) was 409 nm.
Work on `CN(C)c1cccc2c1ccc1c(=O)oc(-c3ccc(C(F)(F)F)cc3)cc12` yielded an absorption maximum (in CC(C)=O) of 392 nm, an absorption maximum (in CCCCCCCCO) of 395 nm and an absorption maximum (in CCCCO) of 394 nm. It also gave an absorption maximum (in CCCO) of 393 nm, an absorption maximum (in CCO) of 393 nm and an absorption maximum (in CCOC(C)=O) of 393 nm. The absorption maximum (in CN(C)C=O) was 395 nm, the absorption maximum (in CO) was 391 nm and the absorption maximum (in ClC(Cl)Cl) was 395 nm.
With `CC(C)(C)c1ccc(C2=C(c3ccc(N4c5ccccc5C(C)(C)c5ccccc54)cc3)S(=O)(=O)c3c2sc(-c2ccc(N4c5ccccc5C(C)(C)c5ccccc54)cc2)c3-c2ccc(C(C)(C)C)cc2)cc1` the absorption maximum (in C1CCOC1) was 403 nm.
With `NCCCCCCCCCCCCN1C(=O)c2ccc3c4ccc5c6c(ccc(c7ccc(c2c37)C1=O)c64)C(=O)N(c1ccc(O)cc1)C5=O` the absorption maximum (in CN(C)C=O) was 525 nm.
`CC[n+]1c(-c2ccccc2)c2cc(NC(N)=[NH2+])ccc2c2ccc(N)cc21` gave an absorption maximum (in O) of 454 nm.
In the case of `Oc1ccc2ncccc2c1`, the absorption maximum (in CC#N) is reported as 331 nm, the absorption maximum (in CCCC#N) is reported as 333 nm and the absorption maximum (in CO) is reported as 331 nm. For the same molecule, the absorption maximum (in Cc1ccccc1) was 332 nm and the absorption maximum (in ClCCl) was 330 nm.
With `Fc1cccc(C2=Cc3ccc4ccccc4[n+]3[B-](F)(F)O2)c1` the absorption maximum (in ClC(Cl)Cl) was 425 nm.
`C=CCNc1ccc2ccc3oc4cc(=O)ccc-4nc3c2c1` showed an absorption maximum (in CC#N) of 537 nm, an absorption maximum (in CCO) of 531 nm and an absorption maximum (in ClCCl) of 539 nm. The absorption maximum (in O) was 522 nm.
For `Cc1cccc2nc3c(=O)[nH]c(=O)[nH]c3nc12`, the absorption maximum (in C1COCCO1) was 379 nm, the absorption maximum (in CC#N) was 379 nm and the absorption maximum (in CCO) was 381 nm. For the same molecule, the absorption maximum (in CO) was 382 nm, the absorption maximum (in ClCCCl) was 380 nm and the absorption maximum (in O) was 386 nm.
`CCOC(=O)c1c(-c2cc3ccccc3oc2=O)nn(-c2cccc(Cl)c2)c1C(=O)OCC` gave an absorption maximum (in ClCCl) of 325 nm.
`COc1ccccc1C1=NC2c3cccc4cccc(c34)C2N1c1ccccc1` (stereo unspecified) gave an absorption maximum (in Cc1ccccc1) of 312 nm.
`BrC1=CN2C[n+]3cc(Br)cc(Br)c3N=C2C(Br)=C1` showed an absorption maximum (in CS(C)=O) of 449 nm.
With `COc1ccc(-c2cnc3cccc(-c4ccc(C(C)=O)cc4)n23)cc1` the absorption maximum (in ClCCl) was 366 nm.
In the case of `Cc1cc(O)c(C(=O)/C=C/c2cccc(O)c2)c(=O)o1`, the absorption maximum (in CC#N) is reported as 367 nm and the absorption maximum (in ClCCl) is reported as 374 nm.
`CCCCCCCN1C(=CC2=C([O-])C(=Cc3sc4ccccc4[n+]3CCCCCCC)C2=C(C#N)C#N)Sc2ccccc21` gave an absorption maximum (in C1COCCO1) of 709 nm, an absorption maximum (in CCO) of 696 nm and an absorption maximum (in CN(C)C=O) of 696 nm. It also gave an absorption maximum (in ClC(Cl)Cl) of 704 nm.
`c1ccc(-n2c3ccccc3c3cc(-c4cccc(-n5c6ccccc6c6ncccc65)c4)ccc32)cc1` gave an absorption maximum (in ClCCl) of 345 nm.
In the case of `B1C=Cc2ccc3ccccc3c2N1`, the absorption maximum (in C1CCCCC1) is reported as 351 nm.
`CCOC(=O)c1c2c3c(cccc3c3cc4ccccc4cc13)N(C)C2=O` showed an absorption maximum (in CC#N) of 398 nm.
Work on `CC1(C)c2ccccc2N(c2ccc3c(c2)S(=O)(=O)c2cc(N4c5ccccc5C(C)(C)c5ccccc54)ccc2C3(C)C)c2ccccc21` yielded an absorption maximum (in ClCCl) of 282 nm.
`CN1C(C(=O)Nc2ccccn2)=C([O-])c2sccc2S1(=O)=O` showed an absorption maximum (in CC#N) of 382 nm, an absorption maximum (in CCCCO) of 377 nm and an absorption maximum (in CCCO) of 376 nm. The absorption maximum (in CCO) was 375 nm and the absorption maximum (in CO) was 373 nm.
For `c1ccc(-c2cc3cc4cccc5c(-c6ccccc6)cc6cc7cccc2c7c3c6c45)cc1`, the absorption maximum (in ClCCl) was 439 nm.
Molecule `COc1ccc(/C=C/c2ccccc2)cc1OC` has an absorption maximum (in CC#N) of 321 nm.
Molecule `N#Cc1c(N2CCCCC2)cc(-c2ccc3ccc4cccc5ccc2c3c45)c2c1-c1ccccc1C2` has an absorption maximum (in C1CCOC1) of 346 nm.
Molecule `CC/[NH+]=c1\cc2oc3cc(NCCC(=O)O)c4ccccc4c3nc-2cc1C` has an absorption maximum (in CCO) of 590 nm and an absorption maximum (in O) of 580 nm.
In the case of `CC(=O)OC[C@H]1O[C@@H](OCC#Cc2ccc(C3=C4C(C)=CC(/C=C/c5ccc([N+](C)(C)C)cc5)=[N+]4[B-](F)(F)n4c(/C=C/c5ccc([N+](C)(C)C)cc5)cc(C)c43)cc2)[C@H](OC(C)=O)C(OC(C)=O)[C@@H]1OC(C)=O` (stereo partly specified), the absorption maximum (in CC#N) is reported as 618 nm.
In the case of `Cc1nn(-c2ccccc2)c2c1c(=O)oc1ccc(-n3c4ccccc4c4cc(-n5c6ccccc6c6ccccc65)ccc43)cc12`, the absorption maximum (in Cc1ccccc1) is reported as 342 nm.
Molecule `Cc1cc(-n2c3ccccc3c3ccccc32)ccc1-c1ccc(S(=O)(=O)c2ccccc2)cc1C` has an absorption maximum (in Cc1ccccc1) of 340 nm.
For `Cc1cc(C)c(C2=C3C=CC=[N+]3[B-]3(F)Oc4cc(O)cc5c6ccc(C)cc6c6cc2n3c6c45)c(C)c1` (stereo unspecified), the absorption maximum (in ClC(Cl)Cl) was 629 nm.
Molecule `c1ccc(-c2nc(-c3ccccc3)nc(-c3ccc(-n4c5ccccc5c5c4c4ccccc4n5-c4ccccc4)cc3)n2)cc1` has an absorption maximum (in Cc1ccccc1) of 398 nm.
`c1ccc(-c2nc(-c3ccccc3)nc(-c3ccc(-n4c5ccccc5c5cc(-c6ccc7sc8ccccc8c7c6)ccc54)cc3)n2)cc1` showed an absorption maximum (in Cc1ccccc1) of 370 nm.
In the case of `CC(C)(C)c1ccc2c(c1)c1cc(C(C)(C)C)ccc1n2-c1cccc(-c2nc(-c3cccc(P(=O)(c4ccccc4)c4ccccc4)c3)nc(-c3cccc(P(=O)(c4ccccc4)c4ccccc4)c3)n2)c1`, the absorption maximum (in C1CCOC1) is reported as 343 nm, the absorption maximum (in CC#N) is reported as 343 nm and the absorption maximum (in CC(C)=O) is reported as 343 nm. The absorption maximum (in CN(C)C=O) was 343 nm, the absorption maximum (in Cc1ccccc1) was 343 nm and the absorption maximum (in ClC(Cl)Cl) was 343 nm. The absorption maximum (in ClCCl) was 343 nm.
`CCOC(=O)c1c(-c2c(Cl)c3ccccc3oc2=O)nn(-c2ccc(Br)cc2)c1C(=O)OCC` gave an absorption maximum (in ClCCl) of 322 nm.
With `CN(C)c1ccc2c(-c3cc(C(=O)[O-])ccc3C(=O)[O-])c3ccc(=[N+](C)C)cc-3oc2c1` the absorption maximum (in CCO) was 538 nm and the absorption maximum (in O) was 549 nm.
In the case of `F[B-]1(F)OC(c2cc3c4c(c2)CCCN4CCC3)=Cc2cccc[n+]21`, the absorption maximum (in ClC(Cl)Cl) is reported as 450 nm.
For `C[Si](C)(C)c1ccc(-c2nc3ccccc3n2-c2ccccc2)cc1`, the absorption maximum (in ClCCl) was 301 nm.
In the case of `COc1ccc(O)c(C=O)c1`, the absorption maximum (in CO) is reported as 359 nm and the absorption maximum (in ClC(Cl)Cl) is reported as 364 nm.
`Fc1c(-n2c3ccccc3c3ccccc32)c(F)c(-n2c3ccccc3c3ccccc32)c(-c2nnc(-c3ccccc3)o2)c1-n1c2ccccc2c2ccccc21` gave an absorption maximum (in Cc1ccccc1) of 345 nm.
For `Clc1ccc(-c2nc(-c3ccccc3)sc2N(c2ccccc2)c2ccccc2)cc1`, the absorption maximum (in ClC(Cl)Cl) was 366 nm.
Molecule `COC(=O)C1=NNC(C(=O)OC)=C2c3ccccc3C(=O)c3ccccc3C12` (stereo unspecified) has an absorption maximum (in CC#N) of 391 nm.
For `c1ccc(-c2nc(-c3ccccc3)nc(-n3c4ccccc4c4cc(-n5c6ccccc6c6ccccc65)cc(-n5c6ccccc6c6ccccc65)c43)n2)cc1`, the absorption maximum (in C1CCOC1) was 332.68 nm.
Molecule `O=C1NC(=O)c2ccc(N3CCOCC3)c3cccc1c23` has an absorption maximum (in ClC(Cl)Cl) of 394 nm.
Work on `CCC1=C(C)C2=Cc3ccccc3B(O)N2C1=O` yielded an absorption maximum (in CC#N) of 358 nm, an absorption maximum (in CCCCCC) of 378 nm and an absorption maximum (in CO) of 359 nm. It also gave an absorption maximum (in CS(C)=O) of 361 nm and an absorption maximum (in ClC(Cl)Cl) of 362 nm.
